Patent US10363229B2, “Methods and compositions for the treatment of cancer” (priority 2009, dated 2019)

What was measured:
[1] = tested on: M3 Cloudman melanoma cells; test: Live cell video microscopy of melanoma cells (morphology, contact inhibition); format: cell-based, mouse; conditions: equimolar concentration substituted for 2% methyl sulfone
Protocol: (§1) Cloudman S-91 mouse melanoma cells (sub-clone M-3, CCL 53.1; American Type Culture Collection, Rockville, Md.) were grown in RMPI medium supplemented with 10% fetal bovine serum (Invitrogen, Inc) and 5% penicillin-streptomycin (Invitrogen, Inc). Mouse breast cancer cells (66Cl-1; American Type Culture Collection, Rockville, Md.) that are estrogen-receptor negative were grown in DMEM medium supplemented with 10% fetal bovine serum (Invitrogen, Inc) and 5% penicillin/streptomycin (Invitrogen, Inc). Human T-cell leukemic lymphocytes (CEM; American Type Culture Collection, Rockville, Md.) were grown in MEM medium supplemented with 7% fetal calf serum. Cultures were passaged twice a week.
Cells were plated on 35 mm tissue culture dishes at concentration of 10^5 cells/plate, unless stated otherwise, and incubated at 37° C., 5% CO2. After 24 hours, methyl sulfone (0-10% in medium) was added to appropriate plates and immediately videotaped with a Nikon TE300 inverted microscope equipped with a 10×0.25 NA Plan Achromat objective lens. Control cells (no drug) were videotaped as described above. Time series (10 min) of phase contrast images were acquired at a video rate of 1 frame/5 s with a Watec-902B CCD video camera (Watec Corp., Japan) via the stream acquisition option of Metamorph image acquisition and analysis software (Universal Imaging Corp., Downington, Pa.). During recordings, cells were kept at 37° C. with 10 mM Hepes, pH 7.4. Time series of cells +/−2% methyl sulfone were obtained every 24-48 hours for up to 6 weeks.
(§2) M3 Cloudman melanoma cells were plated into culture dishes containing RPMI medium. After 24 hour media was changed to control medium (no drug) or to media containing different concentrations of methyl sulfone (1-10% methyl sulfone in RPMI medium). Cells were examined by live cell video microscopy immediately after adding drug and every 24 hours up to 144 hours.
The possibility that the data generated from treating cells with methyl sulfone was a nonspecific effect due to changes in extracellular osmolarity was considered. To test this possibility an equimolar concentration of urea was substituted for 2% methyl sulfone; urea has a chemical structure and dipolar moment that is similar to methyl sulfone. […] We next replaced 2% methyl sulfone with an equimolar concentration of dimethyl sulfoxide (DMSO).

[2] = tested on: Cloudman S-91 mouse melanoma cells (sub-clone M-3); test: Annexin V-FITC/propidium iodide apoptosis assay in melanoma cells; format: cell-based
Protocol: as §1
Early and late apoptosis was assessed with the Annexin V-FITC Apoptosis Detection Kit from PharMingen (Becton-Dickinson, San Diego, Calif.). Images were obtained at the Center for Cell Analysis and Modeling, University of Connecticut Health Center, Farmington, Conn., with an Axioplan CCD Microscope equipped with a 40×1.3 NA FL objective lens and Photometrics PXL-EEV37 high speed digital cooled CCD camera via Metamorph image acquisition and analysis software (Universal Imaging Corp., Downington, Pa.).
as §2
Briefly, melanoma cells (Cloudman M3 cell line) were plated at 10^5 cells/ml in RPMI medium. After 24 hours, medium was replaced with RPMI containing different concentrations (grams/volume) of MMS, MES and EES. After 24 hours, apoptosis was assayed using the Becton-Dickinson Annexin V-FITC/Propidium Iodide Kit and a Nikon fluorescent microscope as described by the manufacturer.

[3] = tested on: CEM cells, leukemic T-cell lymphocytes; test: Apoptosis of leukemic lymphocytes, FITC-annexinV/propidium iodide microscopy; format: cell-based, human; conditions: 10^−7 M VNB, 20 hours
Protocol: as §1
CEM cells, leukemic T-cell lymphocytes obtained from a child with acute lymphocytic leukemia, were maintained in Petri dishes in MEM (minimal essential medium) with 7% fetal calf serum in a 5% CO2 incubator at 37° C. For experiments, methyl sulfone was added to the medium at concentrations from 0-6.0%. In control cells, no methyl sulfone was added. Cells (2×10^6 per ml) were incubated for 20 hrs in the presence or absence of methyl sulfone, and then assayed for apoptosis using FITC-annexinV/propidium iodide microscopy. Methyl sulfone was also compared to the anti-microtubule drug, vinblastine. Vinblastine (VNB) and its derivative, vincristine, are standard treatments for acute lymphocytic leukemia, as well as other cancers. We used the concentration of VNB that is found in the blood of subjects being treated with this drug (10^−7 M) (6,7).

[4] = tested on: microtubules in melanoma cells; test: Immunofluorescence of microtubules, incl. vinblastine stability test; format: cell-based, mouse; conditions: 10^−7 M vinblastine, no methyl sulfone
Protocol: Cells were plated in 6-100 mm tissue culture plates, each containing 1 polylysine-coated 10-well slide, or plated onto polylysine-coated coverslips. Once cells were approximately 50% confluent, 2% methyl sulfone was added to cells for 10, 30, 60, 90, and 120 minutes. At each time point cells were placed in microtubule stabilizing buffer ( ) for 10 minutes followed by incubation in −20° C. methanol for 5 minutes. Cells were washed twice in 0.1% Triton X-100 in PBS at room temperature, then incubated with mouse monoclonal anti-alpha-tubulin antibody (Santa Cruz Biotech, Calif.; diluted 1/200 in 1% BSA/PBS) for 1.5 hours. Cells were washed 5 times in 0.1% Triton X-100/PBS, 3 minutes each. Cells were incubated with secondary antibody (Alexa Fluor 568 rabbit anti-mouse antibody; diluted 1/100 in 1%/PBS) for 30 minutes in the dark. Cells were washed five times in 0.1% Triton X-100/PBS, three minutes each. Cells were washed two times in PBS at 2 minute intervals and incubated with DAPI (1 μg/ml in PBS) for 5 minutes at room temperature and in the dark. Cells were washed in PBS for one minute. SlowFade was added to glass slides, coverslips were placed cell side down and sealed with nail polish. Microtubules were viewed at the Center for Cell Analysis and Modeling, University of Connecticut Health Center, Farmington, Conn., with an Axioplan CCD Microscope equipped with a 40×1.3 NA FL objective lens and Photometrics PXL-EEV37 high speed digital cooled CCD camera via Metamorph image acquisition and analysis software (Universal Imaging Corp., Downington, Pa.).
One assay to test stability of microtubules is to give cells increasing concentrations of a microtubule-disassembly drug and use immunofluorescence microscopy to assess microtubule lengths (Caron et al). A higher concentration of drug will be required to disassemble the more stabilized microtubules. We used different concentrations of the anti-microtubule drug, vinblastine, to assess microtubule stability in control cells and cells incubated with 2% methyl sulfone.

SMILES	effect on melanoma cells of osmolarity control substance [1]	window of concentrations between killing cancer cells and harming normal cells [2]	other results
C[S+](C)[O-] [DMSO, dimethyl sulfoxide, reference compound]	had no effect		
CCS(=O)(=O)CC [EES, ethyl ethyl sulfone, reference compound]		narrow differential	
CCS(C)(=O)=O [MES, methyl ethyl sulfone, reference compound]		narrow differential	
NC(N)=O [urea, reference compound]	induced necrotic death		
CC[C@]1(O)C[C@@H]2CN(CCc3c([nH]c4ccccc34)[C@@](C(=O)OC)(c3cc4c(cc3OC)N(C)[C@H]3[C@@](O)(C(=O)OC)[C@H](OC(C)=O)[C@]5(CC)C=CCN6CC[C@]43[C@@H]65)C2)C1 [vinblastine, reference compound]			apoptotic leukemic cells [3]: 48%; microtubules in control cells [4]: largely gone
